Experimental data from paper PMC10018608 (Signal Transduction and Targeted Therapy, 2023).

What follows are compounds tested against T1, SARS-CoV-2 M^pro (Severe acute respiratory syndrome coronavirus 2, UniProt P0DTD1) (assay: biochemical). Details: […]; mean ± SD from three experiments.

SMILES | IC50 [µM]
C[C@@H](NC(=O)CC1CC(F)(F)C1)C(=O)N[C@H](Cc1ccccc1)C(=O)C(=O)NCc1nccs1 [3u] | 0.0172 ± 0.0003
O=C(CNC(=O)C1CCC(F)(F)CC1)N[C@H](Cc1ccccc1)C(=O)C(=O)NCc1nccs1 [3n] | 0.0503 ± 0.0026
O=C(CNC(=O)c1ccc(F)cc1)N[C@H](Cc1ccccc1)C(=O)C(=O)NCc1nccs1 [3m] | 0.3484 ± 0.003
O=C(CNC(=O)c1cccc(F)c1)N[C@H](Cc1ccccc1)C(=O)C(=O)NCc1nccs1 [3l] | 0.5382 ± 0.0043
O=C(COc1ccccc1)N[C@H](Cc1ccccc1)C(=O)C(=O)NCc1nccs1 [3f] | 0.8808 ± 0.0012
O=C(CNC(=O)C1CCCC(F)(F)C1)N[C@H](Cc1ccccc1)C(=O)C(=O)NCc1nccs1 (stereo partly shown) [3o] | 0.0458 ± 0.0021
C[C@@H](NC(=O)C1CCCC(F)(F)C1)C(=O)N[C@H](Cc1ccccc1)C(=O)C(=O)NCc1nccs1 (stereo partly shown) [3s] | 0.0283 ± 0.0006
O=C(NCc1nccs1)C(=O)[C@@H](Cc1ccccc1)NC(=O)c1cccc(F)c1 [3b] | 0.478 ± 0.0048
O=C(CC1CC(F)(F)C1)NCC(=O)N[C@H](Cc1ccccc1)C(=O)C(=O)NCc1nccs1 [3q] | 0.0234 ± 0.0022
O=C(CNC(=O)c1ccccc1F)N[C@H](Cc1ccccc1)C(=O)C(=O)NCc1nccs1 [3k] | 0.9983 ± 0.0002
O=C(NCc1nccs1)C(=O)[C@@H](Cc1ccccc1)NC(=O)c1ccccc1F [3a, (R)-N-(3,4-dioxo-1-phenyl-4-((thiazol-2-ylmethyl)amino)butan-2-yl)-2-fluorobenzamide] | 0.264 ± 0.004
O=C(CNC(=O)C1CCC(F)(F)C1)N[C@H](Cc1ccccc1)C(=O)C(=O)NCc1nccs1 (stereo partly shown) [3p] | 0.0565 ± 0.0054
C[C@@H](NC(=O)C1CCC(F)(F)C1)C(=O)N[C@H](Cc1ccccc1)C(=O)C(=O)NCc1nccs1 (stereo partly shown) [3t] | 0.0225 ± 0.0007
COC[C@@H](NC(=O)C1CCC(F)(F)CC1)C(=O)N[C@H](Cc1ccccc1)C(=O)C(=O)NCc1nccs1 [3v] | 0.0184 ± 0.0013
COC[C@@H](NC(=O)CC1CC(F)(F)C1)C(=O)N[C@H](Cc1ccccc1)C(=O)C(=O)NCc1nccs1 [3x] | 0.0102 ± 0.0001
O=C(Cc1ccccc1)N[C@H](Cc1ccccc1)C(=O)C(=O)NCc1nccs1 [3d] | 0.949 ± 0.0399

Same assay, conditions: mean ± SD from three experiments

SMILES | IC50 [µM]
O=C(NCc1ncno1)C(=O)[C@@H](Cc1ccccc1)NC(=O)c1ccccc1 [1h] | 62.3 ± 2.07
O=C(CCc1ccccc1)N[C@H](Cc1ccccc1)C(=O)C(=O)NCc1nccs1 [3e] | 1.22 ± 0.1
O=C(NCc1nccs1)C(=O)[C@@H](Cc1cccc(Cl)c1)NC(=O)c1ccccc1 [2f] | 1.43 ± 0.15
O=C(NCc1nccs1)C(=O)[C@@H](Cc1cc(F)c(F)cc1F)NC(=O)c1ccccc1 [2d] | 3.37 ± 0.18
O=C(NCc1nccs1)C(=O)[C@@H](CC1CCCCC1)NC(=O)c1ccccc1 [2e] | 10.5 ± 0.63
Cc1csc(CNC(=O)C(=O)[C@@H](Cc2ccccc2)NC(=O)c2ccccc2)n1 [1i] | 40.7 ± 1.5
O=C(NCc1nccs1)C(=O)[C@@H](Cc1ccccc1)NC(=O)c1ccc(F)cc1 [3c] | 1.31 ± 0.1
O=C(CNC(=O)c1cccnc1)N[C@H](Cc1ccccc1)C(=O)C(=O)NCc1nccs1 [3j] | 2.23 ± 0.37
O=C(CNC(=O)c1ccccn1)N[C@H](Cc1ccccc1)C(=O)C(=O)NCc1nccs1 [3i] | 2.24 ± 0.1
O=C(NCc1nccs1)C(=O)[C@@H](Cc1ccc(F)cc1)NC(=O)c1ccccc1 [2c, (R)-N-(1-(4-fluorophenyl)-3,4-dioxo-4-((thiazol-2-ylmethyl)amino)butan-2-yl)benzamide] | 1.95 ± 0.29
O=C(CNC(=O)c1cnccn1)N[C@H](Cc1ccccc1)C(=O)C(=O)NCc1nccs1 [3h] | 3.62 ± 0.27
O=C(NCc1ccon1)C(=O)[C@@H](Cc1ccccc1)NC(=O)c1ccccc1 [1f] | 54.74 ± 0.35
O=C(NCc1ccco1)C(=O)[C@@H](Cc1ccccc1)NC(=O)c1ccccc1 [1c] | 37.2 ± 0.51
O=C(NCc1nccs1)C(=O)[C@@H](Cc1cccc(F)c1)NC(=O)c1ccccc1 [2b] | 2.55 ± 0.02
O=C(NCc1cccs1)C(=O)[C@@H](Cc1ccccc1)NC(=O)c1ccccc1 [1b] | 77.3 ± 2.31
O=C(NCc1nccs1)C(=O)[C@@H](Cc1ccccc1)NC(=O)c1ccccc1 [1a, (R)-N-(3,4-dioxo-1-phenyl-4-((thiazol-2-ylmethyl)amino)butan-2-yl)benzamide] | 1.3
O=C(NCc1nccs1)C(=O)[C@@H](Cc1ccccc1F)NC(=O)c1ccccc1 [2a] | 3.5 ± 0.23
O=C(NCc1ncon1)C(=O)[C@@H](Cc1ccccc1)NC(=O)c1ccccc1 [1g] | 53.1 ± 3.34
O=C(NCc1nccs1)C(=O)[C@@H](Cc1ccc(Cl)c(Cl)c1)NC(=O)c1ccccc1 [2g] | 2.03 ± 0.07
O=C(CNC(=O)c1ccccc1)N[C@H](Cc1ccccc1)C(=O)C(=O)NCc1nccs1 [3g] | 1.86 ± 0.04
O=C(NCc1ncco1)C(=O)[C@@H](Cc1ccccc1)NC(=O)c1ccccc1 [1d] | 51.5 ± 0.94
O=C(NCc1cnc(Cl)s1)C(=O)[C@@H](Cc1ccccc1)NC(=O)c1ccccc1 [1j] | 95.2 ± 5.99

Same assay, conditions: read-out: IC50 against SARS-CoV-2 M^pro (FRET); mean ± SD from three experiments

SMILES | IC50 [µM]
O=C(NCc1cocn1)C(=O)[C@@H](Cc1ccccc1)NC(=O)c1ccccc1 [1e] | 11.4 ± 0.08

These compounds were tested against T1, SARS-CoV-2 M^pro (assay: Differential scanning fluorimetry (DSF) assay). Details: mean ± SD (n = 3).
Format: binding
Description: M^pro was mixed with tested compounds and 5 × SYPRO Orange dye (Sigma) avoiding from light. The thermal denaturation spectra were run from 20 °C to 95 °C at a gradient of 1.5 °C/min (CFX96, BioRad). Data were analyzed by Boltzmann model to calculate the melt temperature (Tm). The equation ΔTm = Tm(compound) − Tm(DMSO) was used to calculate the thermal shift (ΔTm). The values are presented as mean ± SD (n = 3).

SMILES | thermal shift (ΔTm) [°C]
O=C(NCc1nccs1)C(=O)[C@@H](Cc1ccccc1)NC(=O)c1ccccc1 [1a, (R)-N-(3,4-dioxo-1-phenyl-4-((thiazol-2-ylmethyl)amino)butan-2-yl)benzamide] | 8.45 ± 0.35
